Source: ChEMBL document CHEMBL1201862, “PubChem BioAssay data set” (2004)
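Values below derive from 48-hour exposures of cells grown in 96-well plates, with endpoints linearly interpolated between the two concentrations bracketing the appropriate inhibition level. Here, GI50 denotes the concentration required for 50% inhibition of growth.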 The source made the active and inactive calls. No stated cut-off is given here; in the data, active = GI50 up to about 1.1 µM and inactive = higher.

Experiments:
Experiment in all cases: NCI anticancer screen, dose series, 48 h
CCRF-CEM = tested on: CCRF-CEM
COLO 205 = tested on: COLO 205
DU-145 = tested on: DU-145
SN12C = tested on: SN12C
U-251 = tested on: U-251
SNB-75 = tested on: SNB-75
NCI-H226 = tested on: NCI-H226
LOX IMVI = tested on: LOX IMVI
SK-MEL-5 = tested on: SK-MEL-5
SK-MEL-28 = tested on: SK-MEL-28
SR = tested on: SR
SF-268 = tested on: SF-268
UO-31 = tested on: UO-31
RXF 393 = tested on: RXF 393
SW-620 = tested on: SW-620
MOLT-4 = tested on: MOLT-4
BT-549 = tested on: BT-549
NCI-H460 = tested on: NCI-H460
HOP-92 = tested on: HOP-92
PC-3 = tested on: PC-3
HCT-116 = tested on: HCT-116
NCI-H522 = tested on: NCI-H522
RPMI-8226 = tested on: RPMI-8226
SK-MEL-2 = tested on: SK-MEL-2
TK-10 = tested on: TK-10
SF-295 = tested on: SF-295
NCI-H23 = tested on: NCI-H23
Malme-3M = tested on: Malme-3M
HL-60 = tested on: HL-60
M14 = tested on: M14
Hs-578T = tested on: Hs-578T
HCC 2998 = tested on: HCC 2998
KM12 = tested on: KM12
OVCAR-4 = tested on: OVCAR-4
SNB-19 = tested on: SNB-19
T47D = tested on: T47D
MDA-MB-435 = tested on: MDA-MB-435
OVCAR-8 = tested on: OVCAR-8
A498 = tested on: A498
SF-539 = tested on: SF-539
MDA-MB-231 = tested on: MDA-MB-231
SK-OV-3 = tested on: SK-OV-3
MCF7 = tested on: MCF7
EKVX = tested on: EKVX
MDA-N = tested on: MDA-N
IGROV-1 = tested on: IGROV-1
ACHN = tested on: ACHN
K562 = tested on: K562
UACC-62 = tested on: UACC-62
OVCAR-3 = tested on: OVCAR-3
NCI/ADR-RES = tested on: NCI/ADR-RES
HT-29 = tested on: HT-29
A549 = tested on: A549
HOP-62 = tested on: HOP-62
OVCAR-5 = tested on: OVCAR-5
HCT-15 = tested on: HCT-15
UACC-257 = tested on: UACC-257
CAKI-1 = tested on: CAKI-1

CN1C(=O)C2C=C3CCCCC3=CC2N(C)C1=O (stereo not drawn)
GI50 (CCRF-CEM): > 100 µM (inactive) | GI50 (COLO 205): > 100 µM (inactive) | GI50 (DU-145): > 100 µM (inactive) | GI50 (SN12C): > 100 µM (inactive) | GI50 (U-251): > 100 µM (inactive) | GI50 (SNB-75): > 100 µM (inactive) | GI50 (NCI-H226): > 100 µM (inactive) | GI50 (LOX IMVI): > 100 µM (inactive) | GI50 (SK-MEL-5): > 100 µM (inactive) | GI50 (SK-MEL-28): > 100 µM (inactive) | GI50 (SR): > 100 µM (inactive) | GI50 (SF-268): > 100 µM (inactive) | GI50 (UO-31): > 100 µM (inactive) | GI50 (RXF 393): > 100 µM (inactive) | GI50 (SW-620): > 100 µM (inactive) | GI50 (MOLT-4): > 100 µM (inactive) | GI50 (BT-549): > 100 µM (inactive) | GI50 (NCI-H460): > 100 µM (inactive) | GI50 (HOP-92): 99.1 µM (inactive) | GI50 (PC-3): > 100 µM (inactive) | GI50 (HCT-116): > 100 µM (inactive) | GI50 (NCI-H522): > 100 µM (inactive) | GI50 (RPMI-8226): > 100 µM (inactive) | GI50 (SK-MEL-2): > 100 µM (inactive) | GI50 (TK-10): > 100 µM (inactive) | GI50 (SF-295): > 100 µM (inactive) | GI50 (NCI-H23): > 100 µM (inactive) | GI50 (Malme-3M): > 100 µM (inactive) | GI50 (HL-60): > 100 µM (inactive) | GI50 (M14): > 100 µM (inactive) | GI50 (Hs-578T): > 100 µM (inactive) | GI50 (HCC 2998): > 100 µM (inactive) | GI50 (KM12): > 100 µM (inactive) | GI50 (OVCAR-4): > 100 µM (inactive) | GI50 (SNB-19): > 100 µM (inactive) | GI50 (T47D): > 100 µM (inactive) | GI50 (MDA-MB-435): > 100 µM (inactive) | GI50 (OVCAR-8): > 100 µM (inactive) | GI50 (A498): > 100 µM (inactive) | GI50 (SF-539): > 100 µM (inactive) | GI50 (MDA-MB-231): > 100 µM (inactive) | GI50 (SK-OV-3): > 100 µM (inactive) | GI50 (MCF7): > 100 µM (inactive) | GI50 (EKVX): 77.4 µM (inactive) | GI50 (MDA-N): > 100 µM (inactive) | GI50 (IGROV-1): > 100 µM (inactive) | GI50 (ACHN): > 100 µM (inactive) | GI50 (K562): > 100 µM (inactive) | GI50 (UACC-62): > 100 µM (inactive) | GI50 (OVCAR-3): > 100 µM (inactive) | GI50 (NCI/ADR-RES): > 100 µM (inactive) | GI50 (HT-29): > 100 µM (inactive) | GI50 (A549): > 100 µM (inactive) | GI50 (HOP-62): > 100 µM (inactive) | GI50 (OVCAR-5): > 100 µM (inactive) | GI50 (HCT-15): > 100 µM | GI50 (UACC-257): > 100 µM (inactive) | GI50 (CAKI-1): > 100 µM (inactive)
